Measured values from US11000492B2, “Fluorenone compound for the treatment of gout” (The Trustees of Columbia University in the City of New York, priority 2015, dated 2021).
Entries after “also recorded” stand apart in the source; their conditions may differ. Read-outs that look alike come from different tables or passages of the source.

What was measured:
serum uric acid [1] = assay: Serum uric acid after systemic intraperitoneal administration in guinea pigs; format: in vivo
[2] = system: uric acid levels in the urine; assay: Uric acid levels in the urine of guinea pig; format: in vivo
Source text: The fluorenone DPOFA, (R)-(+)-(5,6-dichloro-2,3,9,9a-tetrahydro-3-oxo-9a-propyl-1H-fluoren-7-yl)oxy]acetic acid, was originally developed for trauma-induced brain damage.

gout = assay: Administration of DPOFA to subjects afflicted with or at risk of gout (Examples 3-6); format: in vivo, human
Experimental: An amount of compound DPOFA is administered to a human subject afflicted with gout. […] An amount of compound DPOFA in combination with allopurinol or febuxostat is administered to a subject afflicted with gout. […] An amount of compound DPOFA is administered to a subject with a history of gout flares or who is at risk for a gout flare. […] An amount of compound DPOFA in combination with allopurinol or febuxostat is administered to a subject with history of gout flares or who is at risk for a gout flare.

[3] = humans; originally studied for treating brain edema; cited from earlier work
serum uric acid [4] = conditions: cited from earlier work; for patients meeting target serum levels (serum uric acid): patients with at least one measurable tophus
serum urate = conditions: cited from earlier work
[5] = particularly in the 400 mg group

CCC[C@]12CCC(=O)C=C1c1c(cc(OCC(=O)O)c(Cl)c1Cl)C2 [DPOFA]
reduction in the serum uric acid level (serum uric acid [1]; 20 mg intraperitoneally): pronounced reduction; also recorded: reduced uric acid levels in the blood | time point of maximum reduction of uric acid (serum uric acid [1]; following systemic administration of 20 mg): 7 h | uric acid levels in the urine [2]: increases uric acid levels in the urine | serum uric acid levels in subject afflicted with gout (gout; human subject afflicted with gout, Example 3): reduces serum uric acid levels | treating gout, combination versus each compound alone (gout; in combination with allopurinol or febuxostat, Example 4): more effective in treating the gout than each compound administered alone | preventing gout, combination versus each compound alone (gout; in combination with allopurinol or febuxostat, Example 6): more effective in preventing the gout than each compound administered alone | prevention of gout flares (gout; subject with a history of gout flares or at risk, Example 5): effective to prevent gout flares | crossing of the blood-brain barrier [3]: failed to cross the blood-brain barrier

Cc1nc(-c2ccc(OCC(C)C)c(C#N)c2)sc1C(=O)O [febuxostat]
patients meeting target serum levels (serum uric acid) (serum uric acid [4]; febuxostat alone): 46%

O=C(O)CSc1nnc(Br)n1-c1ccc(C2CC2)c2ccccc12 [lesinurad]
improvement at six months (primary endpoint) (serum uric acid [4]; 200 mg dose): failed to show a significant improvement | proportion of subjects achieving a complete resolution of at least one tophus by month 12 (serum uric acid [4]; combination with febuxostat): did not result in a significant difference | patients meeting target serum levels (serum uric acid) (serum uric acid [4]; lesinurad 400 mg in combination with febuxostat): 76% | rate of renal-related AEs (serum uric acid [4]; [5]): higher rate of renal-related AEs | serum creatinine levels (serum uric acid [4]; [5]): rise in serum creatinine levels

CCCN(CCC)S(=O)(=O)c1ccc(C(=O)O)cc1 [probenecid]
patients achieving target serum urate concentrations (<0.36 mmol/l) (serum urate; allopurinol combination treatment group, 10/27): 37% | adverse effects, share of subjects tested (serum urate; human, in vivo): 19% | patients achieving target serum urate concentrations (<0.36 mmol/l) (serum urate; probenecid monotherapy group, 10/30): 33%
